PubChem BioAssay AID2060890 (Molecular Pharmacology Branch, DTP, NCI, 2025)

System: LG0703-F948-PDC complex spheroid viability
Assay: Anticancer human tumor LG0703-F948-PDC patient-derived lung adenocarcinoma cell line growth inhibition [RAS]
Conditions: for IC50: curve of first compound; for viability, T/C: stronger effect = lower value; active = viability on the fitted dose curve at most 10% of control; inactive = the rest
How it was run: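 Multi-cell-type spheroids: tumor cells plus HUVEC endothelial cells and mesenchymal stem cells. RAS-pathway inhibitors were combined with targeted agents, each dosed in half-log steps down from clinical Cmax, or from 10 microM when Cmax was unknown.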

[1] = second compound 0.000949 µM, first compound 0.0316 µM
[2] = second compound 0.000949 µM, first compound 0.1 µM
[3] = second compound 0.000949 µM, first compound 0.316 µM
[4] = second compound 0.000949 µM, first compound 1 µM
[5] = second compound 0.000949 µM, first compound 3.16 µM
[6] = second compound 0.000949 µM, first compound 10 µM
[7] = second compound 0.003 µM, first compound 0.0316 µM
[8] = second compound 0.003 µM, first compound 0.1 µM
[9] = second compound 0.003 µM, first compound 0.316 µM
[10] = second compound 0.003 µM, first compound 1 µM
[11] = second compound 0.003 µM, first compound 3.16 µM
[12] = second compound 0.003 µM, first compound 10 µM
[13] = second compound 0.00949 µM, first compound 0.0316 µM
[14] = second compound 0.00949 µM, first compound 0.1 µM
[15] = second compound 0.00949 µM, first compound 0.316 µM
[16] = second compound 0.00949 µM, first compound 1 µM
[17] = second compound 0.00949 µM, first compound 3.16 µM
[18] = second compound 0.00949 µM, first compound 10 µM
[19] = second compound 0.03 µM, first compound 0.0316 µM
[20] = second compound 0.03 µM, first compound 0.1 µM
[21] = second compound 0.03 µM, first compound 0.316 µM
[22] = second compound 0.03 µM, first compound 1 µM
[23] = second compound 0.03 µM, first compound 3.16 µM
[24] = second compound 0.03 µM, first compound 10 µM
[25] = second compound 0.0949 µM, first compound 0.0316 µM
[26] = second compound 0.0949 µM, first compound 0.1 µM
[27] = second compound 0.0949 µM, first compound 0.316 µM
[28] = second compound 0.0949 µM, first compound 1 µM
[29] = second compound 0.0949 µM, first compound 3.16 µM
[30] = second compound 0.0949 µM, first compound 10 µM
[31] = second compound 0.3 µM, first compound 0.0316 µM
[32] = second compound 0.3 µM, first compound 0.1 µM
[33] = second compound 0.3 µM, first compound 0.316 µM
[34] = second compound 0.3 µM, first compound 1 µM
[35] = second compound 0.3 µM, first compound 3.16 µM
[36] = second compound 0.3 µM, first compound 10 µM
[37] = second compound 0.0316 µM, first compound 0.0316 µM
[38] = second compound 0.0316 µM, first compound 0.1 µM
[39] = second compound 0.0316 µM, first compound 0.316 µM
[40] = second compound 0.0316 µM, first compound 1 µM
[41] = second compound 0.1 µM, first compound 0.0316 µM
[42] = second compound 0.1 µM, first compound 0.1 µM
[43] = second compound 0.1 µM, first compound 0.316 µM
[44] = second compound 0.1 µM, first compound 1 µM
[45] = second compound 0.316 µM, first compound 0.0316 µM
[46] = second compound 0.316 µM, first compound 0.1 µM
[47] = second compound 0.316 µM, first compound 0.316 µM
[48] = second compound 0.316 µM, first compound 1 µM
[49] = second compound 1 µM, first compound 0.0316 µM
[50] = second compound 1 µM, first compound 0.1 µM
[51] = second compound 1 µM, first compound 0.316 µM
[52] = second compound 1 µM, first compound 1 µM
[53] = second compound 3.16 µM, first compound 0.0316 µM
[54] = second compound 3.16 µM, first compound 0.1 µM
[55] = second compound 3.16 µM, first compound 0.316 µM
[56] = second compound 3.16 µM, first compound 1 µM
[57] = second compound 10 µM, first compound 0.0316 µM
[58] = second compound 10 µM, first compound 0.1 µM
[59] = second compound 10 µM, first compound 0.316 µM
[60] = second compound 10 µM, first compound 1 µM
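Also: spheroids exposed to agents for 7 days.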
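For viability, T/C in this document: 100% = DMSO vehicle wells.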

CC(Nc1ccc2c(c1)OCCn1cc(N3C(=O)OCC3C(F)F)nc1-2)C(N)=O (stereo not drawn) + CCn1c(-c2cccnc2C(C)OC)c2c3cc(ccc31)N1CCOC(CC(NC(=O)C(C(C)C)N(C)C(=O)C3(F)CCN(C(=O)C#CC(C)(C)N(C)C)CC3)C(=O)N3CCCC(N3)C(=O)OCC(C)(C)C2)C1
2260 nM: IC50 (second compound 0.003 µM)
1210 nM: IC50 (second compound 0.03 µM)
inactive: viability, T/C [1] 101% | viability, T/C [2] 82.3% | viability, T/C [3] 89.8% | viability, T/C [4] 63.6% | viability, T/C [5] 46.5% | viability, T/C [6] 24.1% | viability, T/C [7] 102% | viability, T/C [8] 86.6% | viability, T/C [9] 72.8% | viability, T/C [10] 61.8% | viability, T/C [11] 45.4% | viability, T/C [12] 32.6% | viability, T/C [13] 102% | viability, T/C [14] 83.2% | viability, T/C [15] 77.8% | viability, T/C [16] 54.6% | viability, T/C [17] 52.7% | viability, T/C [18] 25.4% | viability, T/C [19] 100% | viability, T/C [20] 81.7% | viability, T/C [21] 60.8% | viability, T/C [22] 56.5% | viability, T/C [23] 41.5% | viability, T/C [24] 23.3% | viability, T/C [25] 74.1% | viability, T/C [26] 64.8% | viability, T/C [27] 54.3% | viability, T/C [28] 35.2% | viability, T/C [29] 31.7% | viability, T/C [30] 19.9% | viability, T/C [31] 41.6% | viability, T/C [32] 32.1% | viability, T/C [33] 24.8% | viability, T/C [34] 18.8% | viability, T/C [35] 15.4% | viability, T/C [36] 10.1%
2580 nM: IC50 (second compound 0.000949 µM)
388 nM: IC50 (second compound 0.0949 µM)
< 31.6 nM: IC50 (second compound 0.3 µM)
2140 nM: IC50 (second compound 0.00949 µM)

CC1(O)CCCC1n1c(=O)c(C(F)F)cc2cnc(NC3CCN(S(C)(=O)=O)CC3)nc21 (stereo not drawn) + CCn1c(-c2cc(N3CCN(C)CC3)cnc2C(C)OC)c2c3cc(ccc31)-c1csc(n1)CC(NC(=O)C1CC1C)C(=O)N1CCCC(N1)C(=O)OCC(C)(C)C2
inactive: viability, T/C [1] 77.1% | viability, T/C [2] 89.8% | viability, T/C [3] 69.7% | viability, T/C [4] 71.1% | viability, T/C [5] 63% | viability, T/C [6] 28.3% | viability, T/C [7] 52.2% | viability, T/C [8] 48.5% | viability, T/C [9] 46.9% | viability, T/C [10] 52.1% | viability, T/C [11] 46.7% | viability, T/C [12] 18.4% | viability, T/C [13] 27.4% | viability, T/C [14] 31% | viability, T/C [15] 31% | viability, T/C [16] 29.3% | viability, T/C [17] 33.4% | viability, T/C [18] 13.4% | viability, T/C [19] 16.4% | viability, T/C [20] 18.5% | viability, T/C [21] 15.9% | viability, T/C [22] 19.1% | viability, T/C [23] 19.1% | viability, T/C [24] 7.67% | viability, T/C [25] 11.3% | viability, T/C [26] 14% | viability, T/C [27] 12.9% | viability, T/C [28] 17% | viability, T/C [29] 21% | viability, T/C [30] 5.97% | viability, T/C [31] 10.2% | viability, T/C [32] 7.6% | viability, T/C [33] 15.7% | viability, T/C [34] 12.1% | viability, T/C [35] 11.2% | viability, T/C [36] 5.22%
4620 nM: IC50 (second compound 0.000949 µM)
< 31.6 nM: IC50 (second compound 0.003 µM) | IC50 (second compound 0.00949 µM) | IC50 (second compound 0.03 µM) | IC50 (second compound 0.0949 µM) | IC50 (second compound 0.3 µM)

C[C@@H](NC(=O)c1ncnc(N)c1Cl)c1ncc(C(=O)Nc2cc(C(F)(F)F)c(Cl)cn2)s1 + C#Cc1c(F)ccc2cc(O)cc(-c3ncc4c(N5CC6CCC(C5)N6)nc(OCC56CCCN5CC(F)C6)nc4c3F)c12
inactive: viability, T/C [37] 108% | viability, T/C [38] 92.3% | viability, T/C [39] 101% | viability, T/C [40] 96.7% | viability, T/C (second compound 0.0316 µM, first compound 3.16 µM) 103% | viability, T/C (second compound 0.0316 µM, first compound 10 µM) 104% | viability, T/C [41] 87.5% | viability, T/C [42] 87.6% | viability, T/C [43] 98.3% | viability, T/C [44] 103% | viability, T/C (second compound 0.1 µM, first compound 3.16 µM) 104% | viability, T/C (second compound 0.1 µM, first compound 10 µM) 98.3% | viability, T/C [45] 85.8% | viability, T/C [46] 76.6% | viability, T/C [47] 87.3% | viability, T/C [48] 95.4% | viability, T/C (second compound 0.316 µM, first compound 3.16 µM) 109% | viability, T/C (second compound 0.316 µM, first compound 10 µM) 99% | viability, T/C [49] 86.7% | viability, T/C [50] 74.1% | viability, T/C [51] 64.3% | viability, T/C [52] 83.5% | viability, T/C (second compound 1 µM, first compound 3.16 µM) 73.5% | viability, T/C (second compound 1 µM, first compound 10 µM) 80% | viability, T/C [53] 63.1% | viability, T/C [54] 66.3% | viability, T/C [55] 58.6% | viability, T/C [56] 68% | viability, T/C (second compound 3.16 µM, first compound 3.16 µM) 65.4% | viability, T/C (second compound 3.16 µM, first compound 10 µM) 66.6% | viability, T/C [57] 56.8% | viability, T/C [58] 60.5% | viability, T/C [59] 56.4% | viability, T/C [60] 56.1% | viability, T/C (second compound 10 µM, first compound 3.16 µM) 70.9% | viability, T/C (second compound 10 µM, first compound 10 µM) 39.5%
> 10000 nM: IC50 (second compound 0.0316 µM) | IC50 (second compound 0.1 µM) | IC50 (second compound 0.316 µM) | IC50 (second compound 1 µM) | IC50 (second compound 3.16 µM) | IC50 (second compound 10 µM)

Nc1ccn(C2OC(CO)C(O)C2(F)F)c(=O)n1 (stereo not drawn) + C#Cc1c(F)ccc2cc(O)cc(-c3ncc4c(N5CC6CCC(C5)N6)nc(OCC56CCCN5CC(F)C6)nc4c3F)c12
3.85 nM: IC50 (second compound 3.16 µM)
inactive: viability, T/C (second compound 0.0316 µM, first compound 0.00316 µM) 68.2% | viability, T/C (second compound 0.0316 µM, first compound 0.01 µM) 37.7% | viability, T/C [37] 30.6% | viability, T/C [38] 34.1% | viability, T/C [39] 25.7% | viability, T/C [40] 28.3% | viability, T/C (second compound 0.1 µM, first compound 0.00316 µM) 74.2% | viability, T/C (second compound 0.1 µM, first compound 0.01 µM) 45% | viability, T/C [41] 26.9% | viability, T/C [42] 27.4% | viability, T/C [43] 31.9% | viability, T/C [44] 27% | viability, T/C (second compound 0.316 µM, first compound 0.00316 µM) 63.7% | viability, T/C (second compound 0.316 µM, first compound 0.01 µM) 40.8% | viability, T/C [45] 31.6% | viability, T/C [46] 29% | viability, T/C [47] 26.6% | viability, T/C [48] 23.5% | viability, T/C (second compound 1 µM, first compound 0.00316 µM) 59% | viability, T/C (second compound 1 µM, first compound 0.01 µM) 35.4% | viability, T/C [49] 32.7% | viability, T/C [50] 23.8% | viability, T/C [51] 26.4% | viability, T/C [52] 25.6% | viability, T/C (second compound 3.16 µM, first compound 0.00316 µM) 53% | viability, T/C (second compound 3.16 µM, first compound 0.01 µM) 34.7% | viability, T/C [53] 34.2% | viability, T/C [54] 30.9% | viability, T/C [55] 32% | viability, T/C [56] 26.9% | viability, T/C (second compound 10 µM, first compound 0.00316 µM) 41.5% | viability, T/C (second compound 10 µM, first compound 0.01 µM) 29% | viability, T/C [57] 32.5% | viability, T/C [58] 33.5% | viability, T/C [59] 34% | viability, T/C [60] 30.7%
8.21 nM: IC50 (second compound 0.1 µM)
6.43 nM: IC50 (second compound 0.316 µM)
< 3.16 nM: IC50 (second compound 10 µM)
5.01 nM: IC50 (second compound 1 µM)
6.33 nM: IC50 (second compound 0.0316 µM)
